Reference: patent US6416753B1, “Method for modulating apoptosis” (The General Hospital Corporation, priority 1996, dated 2002)

How the values were obtained:
HeLa cells [1] = test: HeLa cell death induced by TNF-α and cycloheximide; format: cell-based; conditions: data not shown
cerebral infarct = conditions: rat model; Relton & Rothwell 1992; cited from earlier work
HeLa cells [2] = test: Mature IL-1β induced cell death of hydroxyurea (G1/S) arrested HeLa cells; format: cell-based; conditions: G1/S phase arrested HeLa cells
Description: (§1) HeLa, HeLa/CrmA, and L929 cells were seeded (2×10^4) in a 24 well plate and grown overnight in DMEM with 10% FCS. After 12 hours, the cells were washed 3 times with serum free DMEM, and hydroxyurea (HU) (2.5 mM) (Sigma, St. Louis, Mo.) was added to the HeLa and HeLa/CrmA cells Meikrantz, W., et al., Proc. Natl. Acad. Sci. U.S.A. 91: 3754 (1994)). After five hours, IL-1Ra (40 ng/ml) was added to the appropriate wells, and one hour later either TNF-α or mature IL1β were added. Twenty-four hours later, IL-1Ra was again added to the appropriate wells, and cell death was evaluated by trypan blue exclusion 60 hours after the initial addition of HU. Each condition was done three times in duplicate and 200 cells counted per well. For the photographs cells were grown on 2 well slides, and for nuclear morphology determination cells were fixed in 4% paraformaldehyde and incubated with Hoechst dye #33258 (10 μg/ml) (Sigma, St. Louis, Mo.).

HeLa cells [3] = test: Hypoxia-induced apoptosis of HeLa cells, viability by trypan blue exclusion; format: cell-based
Description: (§2) Hypoxia-induced apoptosis was studied as follows. HeLa and HeLa/CrmA cells (Miura, M., et al., Proc. Natl. Acad. Sci. USA. 92:8318-8322, 1995) were seeded in 35 mm dishes at a density of 6×10^4/dish in DMEM/10% FCS and grown overnight. The medium was then changed and factors were added (IL-1Ra, R & D, Minneapolis, Minn.), IL-1 antibody (Calbiochem, San Diego, Calif.), or IL-1 type-1 receptor antibody (R & D, Minneapolis, Minn.). Dishes were placed in an anaerobic chamber with a BBL GasPack Plus (Becton-Dickenson, USA), which reduced the oxygen concentration to less than 100 p.p.m. within 90 minutes. After 16 hours, cells were removed from the chamber, immediately trypsinized and scored for viability by trypan blue exclusion. Inhibition of ^125I IL-1β binding by IL-1Ra which was added for 2 hrs at 37° C. After addition of BSA (1 mg/ml) to the medium, cells were incubated at 4° C. for 15 minutes, and then ^125IL-1β (100 ng/ml) was added at 4° C. for 1 hr. For detection of ^125IL-1β binding, cells were treated with 50 mM glycine-HCl, pH 2.6 for 1 min, and quantitated by γ-counting.
Hypoxia was produced as described in Example 1. IL-1β (100 ng/ml) was added as the cells were placed into the hypoxia chamber (90 min. are required to reach oxygen concentrations of 100 p.p.m.). […] Cells were then treated as above with glycine and radioactivity scored.

COS cells = test: Cell death of COS cells transfected with Ice-lacZ / Ich-1L-lacZ / proIL-1β, round blue cells scored; format: cell-based
Description: COS cells were plated (2×10^4) in 6-well plates in DMEM with 10% FCS. After 12 hours the wells were washed with serum and antibiotic free medium, and transfected using lipofectamine with either Ice-lacZ, Ich-1L-lacZ, βactin-lacZ(1 μg) or with proIL-1β (0.5 μg) for 3 hours. The sequence for Ich-1L is shown in FIG. 7 and the sequences of human ICE and pro- IL-1β are found respectively in Thornsberry et al., Nature 356:768-774 (1992) and in J. Immunol. 137:3644-3648, 1986. The medium was then removed and DMEM with 10% FCS added. IL-1Ra (40 ng/ml) was then added to the appropriate wells, and after one hour IL-1β (100 ng/ml) was added. X-gal reaction was performed 36 hours following the transfection and percentage of round blue (dead) cells were scored (Miura, M., et al., Cell 75: 653 (1993))

HeLa cells [4] = test: TNF-α induced cell death of hydroxyurea (G1/S) arrested HeLa cells; format: cell-based; conditions: HU treated, G1/S phase arrested HeLa cells; IL-1Ra 40 ng/ml
Description: as §1

L929 cells = test: TNF-α induced cell death of L929 cells, trypan blue exclusion; format: cell-based; conditions: IL-1Ra 40 ng/ml
Description: as §1, with “After” for “HeLa, HeLa/CrmA, and L929 cells were seeded (2×10^4) in a 24 well plate and grown overnight in DMEM with 10% FCS. After”, “Louis, Mo.) was added to the HeLa and HeLa/CrmA cells Meikrantz, W., et al., Proc.” left out

DRG neurons = test: Trophic factor deprivation of primary DRG neurons, healthy neurons counted; format: cell-based, mouse; conditions: for Inhibition of trophic factor withdrawal-induced apoptosis: 100 ng/ml
Description: Neuronal trophic factor deprivation was assayed as follows. Post-natal day 1 mouse DRG neurons were isolated, dissociated with trypsin for one hour at 37° C., and plated in a 8 camber poly-lysine/laminin (Sigma, St. Louis, Mo.) coated slide. Wells were seeded at approximately 1000 neurons/well (8 wells/mouse). Neurons were cultured in Ham's nutrient F-12 supplemented with 20% FCS (Biowhittaker, Walkesvill, Md.), NGF (200 ng/ml) (Sigma, St. Louis, Mo.), BDNF (100 ng/ml) (Preprotech, Rocky Hill, N.J.), glutamine (2 mM), and penicillin/streptomycin. The medium was replaced daily with either trophic factor containing medium (TF(+))=20% FCS and NGF (200 ng/ml), or trophic factor deficient medium, TF(−)=serum and NGF-free medium in the presence of saturating concentration of mouse NGF monoclonal antibody (100 ng/ml) (Boehringer Mannheim, Indianapolis, Ind.), and IL-IRA (100 ng/ml unless otherwise indicated in the text). Healthy neurons were counted under a phase contrast microscope 24 and 48 hours following the media change.

IL-1 receptor [5] = biological target: T1, IL-1 receptor (Homo sapiens, UniProt P14778); test: Inhibition of 125I IL-1β receptor binding in HeLa cells; conditions: IL-1Ra added for 2 hrs at 37° C.
T1 construct: endogenous in cells; host or cells: HeLa cells
T1 sequence (P14778 18-569): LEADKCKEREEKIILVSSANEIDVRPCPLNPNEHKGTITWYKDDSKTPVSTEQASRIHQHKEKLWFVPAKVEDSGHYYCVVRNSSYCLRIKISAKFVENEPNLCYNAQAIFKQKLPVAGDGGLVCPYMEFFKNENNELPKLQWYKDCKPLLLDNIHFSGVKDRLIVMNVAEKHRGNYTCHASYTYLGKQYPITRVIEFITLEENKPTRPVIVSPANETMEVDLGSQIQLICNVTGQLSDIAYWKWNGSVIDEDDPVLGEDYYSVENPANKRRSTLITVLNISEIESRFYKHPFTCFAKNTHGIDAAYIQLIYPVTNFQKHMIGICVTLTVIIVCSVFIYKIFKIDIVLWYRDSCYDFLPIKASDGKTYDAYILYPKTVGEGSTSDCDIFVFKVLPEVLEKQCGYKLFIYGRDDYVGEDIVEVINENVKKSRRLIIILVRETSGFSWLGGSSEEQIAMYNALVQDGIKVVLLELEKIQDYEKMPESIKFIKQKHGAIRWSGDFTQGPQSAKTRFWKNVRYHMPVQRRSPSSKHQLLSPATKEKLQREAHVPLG
Description: as §2

HeLa and L929 = test: Apoptosis of healthy proliferating cells exposed to mature IL-1β alone; format: cell-based; conditions: most healthy proliferating cells including HeLa and L929
IL-1 receptor [6] = biological target: T1, IL-1 receptor; test: IL-1 receptor binding assay (receptor down-regulation) in HeLa cells; format: cell-based; conditions: 100 ng/ml 125I IL-1β
Description: Hypoxia was produced as described in Example 1. IL-1β (100 ng/ml) was added as the cells were placed into the hypoxia chamber (90 min. are required to reach oxygen concentrations of 100 p.p.m.). IL-1 receptor binding assay: HeLa cells (10^6) were seeded in 10 cm dishes and grown overnight. Media was then exchanged containing 1 mg/ml of BSA and 100 ng/ml of ^125I IL-1β at 4° C. for 1 hr. After washing twice with cold medium, the cells were incubated with fresh warm medium at 37° C. for 0, 30, 60 and 120 minutes. Cells were then treated as above with glycine and radioactivity scored.

[7] = biological target: IL-1 type-1 receptor on HeLa cells (UniProt P14778); test: cell-based or functional assay

IL-1Ra: a naturally occurring cytokine which binds to the IL-1 receptor, blocking IL-1 mediated signal transduction
Protection from death induced by TNF-α and cycloheximide (HeLa cells [1]): protected
Reduction of cerebral infarct size following ischemia (cerebral infarct): 50%
Inhibition of mature IL-1β induced cell death (HeLa cells [2]): inhibited
Inhibition of hypoxia-induced cell death (HeLa cells [3]; HeLa cells, 16 hours hypoxia): inhibited hypoxia-induced cell death
Inhibition of death of COS cells expressing Ice-lacZ or Ich-1L-lacZ with proIL-1β, or with extracellular TNF-α or mature IL-1β (COS cells; IL-1Ra 40 ng/ml): significantly inhibited
Inhibition of TNF-α induced HeLa cell death (HeLa cells [4]): 56.0%
Protection from TNF-α induced death (L929 cells): up to 64.9%
Inhibition of neuronal apoptosis (DRG neurons; 40 ng/ml, 24 hours): 43.5%
Inhibition of trophic factor withdrawal-induced apoptosis (DRG neurons; 24 hours): 69.2%
Inhibition of trophic factor withdrawal-induced apoptosis (DRG neurons; 48 hours): 37.8%
Blocking of 125I-IL-1β binding (IL-1 receptor [5]): blocks

IL-1β: mature 17.5 kD interleukin-1β, cytokine produced by ICE cleavage of prointerleukin-1β
Induction of apoptosis of healthy proliferating cells (HeLa and L929): does not induce apoptosis
Down-regulation of the IL-1 receptor (IL-1 receptor [6]): significantly down-regulated
Cell death induced by exogenous mature IL-1β (HeLa cells [2]; 100 ng/ml): 83.7%
Survival of HeLa cells preincubated with exogenous IL-1β under hypoxia (HeLa cells [3]; IL-1β 100 ng/ml added as cells were placed into the hypoxia chamber, control 10.1%): 58.7%
Induction of apoptosis in COS cells by the exogenous cytokine alone (COS cells; COS cells without Ice/Ich-1L transfection): did not induce apoptosis
Induction of cell death in Ice-lacZ or Ich-1L-lacZ transfected COS cells (COS cells; extracellular cytokine, 36 hours after transfection): efficiently induced cell death

mature IL-1β (from UniProt P01584 117-269) (ligand)
cell death of G1/S phase arrested (HU treated) HeLa cells treated with exogenous mature IL-1β [7]: 83.7%
survival of HeLa cells under hypoxia after preincubation with exogenous IL-1β (100 ng/ml) [7]: 58.7%
